Data on nine molecules can be found in patent US10828317B2, “Method of treating bacterial infections” (priority 2016, dated 2020).

One assay has as its system K. pneumoniae EN0262. The conditions noted are these: commercial antibiotics; data provided by IMBIM, BMC, Uppsala University; cited from earlier work.
Another assay has as its system E. coli. As to the kind of experiment: Murine peritonitis model. The settings on record: Ciprofloxacin 14 mg/kg, per mouse. On the set-up: score at sampling: scale not given here. It is filed as in vivo, mice.
The subject of a further assay is S. aureus strain no 13. Description: MIC vs S. aureus LMG 15975, MRSA. The settings on record: for MIC BrdUrd: 2 μg/ml of trimethoprim; for MIC: Staphylococcus aureus.

In brackets after ≈: the same amount, converted by molar mass. Several values for one entry are separate records, joined by “and”; a condition that tells them apart may be missing. Equal entries are not always repeated. Where two headings read alike, the source gives them in different places. Some results are limits rather than exact numbers.

For `CN(C)c1cc(NC(=O)CNC(C)(C)C)c(O)c2c1C[C@H]1C[C@H]3[C@H](N(C)C)C(O)=C(C(N)=O)C(=O)[C@@]3(O)C(O)=C1C2=O` [TGC, tigecycline], the MIC in the assay on K. pneumoniae EN0262 is 2 µg/mL (≈ 3.41 µM). For the molecule `O=C(O)c1cn(C2CC2)c2cc(N3CCNCC3)c(F)cc2c1=O` [Ciprofloxacin, ciprofloxacin], in the assay with K. pneumoniae EN0262, the MIC is above 2 µg/mL. Moreover, in the assay with E. coli, the “CFU/ml PF” value is 1.75E+03 CFU/ml and 2.50E+02 CFU/ml and 1.00E+03 CFU/ml (2×); the “log CFU/ml PF” value is 3.24 log CFU/ml and 2.40 log CFU/ml and 3.00 log CFU/ml (2×); the score at sampling turned out to be 0.

On to `CO/N=C(\C(=O)N[C@@H]1C(=O)N2C(C(=O)O)=C(COC(C)=O)CS[C@H]12)c1csc(N)n1` [CTX, cefotaxime], for which the MIC with K. pneumoniae EN0262 was above 32 µg/mL. On to `C[C@H]1[C@H](NC(=O)/C(=N\OC(C)(C)C(=O)O)c2csc(N)n2)C(=O)N1S(=O)(=O)O` [ATM, aztreonam], for which, in the assay with K. pneumoniae EN0262, the MIC was above 16 µg/mL. Turning to `O=c1[nH]c(=O)n([C@H]2C[C@H](O)[C@@H](CO)O2)cc1Br` [BrdUrd], the “MIC BrdUrd” value in the assay on S. aureus strain no 13 (uridine 10 μg/ml) and against S. aureus strain no 13 (uridine 100 μg/ml) was at most 2 µg/mL in each case.

`CO/N=C(\C(=O)N[C@@H]1C(=O)N2C(C(=O)[O-])=C(C[N+]3(C)CCCC3)CS[C@H]12)c1csc(N)n1` [FEP, cefepime]: the MIC in the assay with K. pneumoniae EN0262 is above 16 µg/mL. As to `COc1cc(Cc2cnc(N)nc2N)c2c(c1OC)OC(C1CC1)C=C2` (centres unmarked) [Iclaprim, iclaprim], the MIC was above 16 µg/mL in the assay on S. aureus strain no 13 (NO13, read-out: MIC Iclaprim, Uridine 0 μg/ml) and above 16 µg/mL in the assay with S. aureus strain no 13 (NO13, read-out: MIC Iclaprim, Uridine 100 μg/ml). For `C[C@@H](O)[C@H]1C(=O)N2C(C(=O)O)=C(S[C@@H]3CN[C@H](C(=O)N(C)C)C3)[C@H](C)[C@H]12` [MEM, meropenem], in the assay on K. pneumoniae EN0262, the MIC is above 8 µg/mL.

As to colistin [CST], the MIC with K. pneumoniae EN0262 is 1 µg/mL.
